# According to ChEMBL document CHEMBL6083222, “Discovery of novel, orally bioavailable phenylacetamide derivatives as multikinase inhibitors and in vivo efficacy study in hepatocellular carcinoma animal models” (Bioorg Med Chem Lett, 2024):
# Assays:
# [1] = target: Platelet-derived growth factor receptor beta (Homo sapiens, UniProt P09619)
# Description: Inhibition of PDGFR-beta (unknown origin)
# [2] = target: T1, Receptor-type tyrosine-protein kinase FLT3 (Homo sapiens, UniProt P36888)
# T1 sequence (P36888 whole entry): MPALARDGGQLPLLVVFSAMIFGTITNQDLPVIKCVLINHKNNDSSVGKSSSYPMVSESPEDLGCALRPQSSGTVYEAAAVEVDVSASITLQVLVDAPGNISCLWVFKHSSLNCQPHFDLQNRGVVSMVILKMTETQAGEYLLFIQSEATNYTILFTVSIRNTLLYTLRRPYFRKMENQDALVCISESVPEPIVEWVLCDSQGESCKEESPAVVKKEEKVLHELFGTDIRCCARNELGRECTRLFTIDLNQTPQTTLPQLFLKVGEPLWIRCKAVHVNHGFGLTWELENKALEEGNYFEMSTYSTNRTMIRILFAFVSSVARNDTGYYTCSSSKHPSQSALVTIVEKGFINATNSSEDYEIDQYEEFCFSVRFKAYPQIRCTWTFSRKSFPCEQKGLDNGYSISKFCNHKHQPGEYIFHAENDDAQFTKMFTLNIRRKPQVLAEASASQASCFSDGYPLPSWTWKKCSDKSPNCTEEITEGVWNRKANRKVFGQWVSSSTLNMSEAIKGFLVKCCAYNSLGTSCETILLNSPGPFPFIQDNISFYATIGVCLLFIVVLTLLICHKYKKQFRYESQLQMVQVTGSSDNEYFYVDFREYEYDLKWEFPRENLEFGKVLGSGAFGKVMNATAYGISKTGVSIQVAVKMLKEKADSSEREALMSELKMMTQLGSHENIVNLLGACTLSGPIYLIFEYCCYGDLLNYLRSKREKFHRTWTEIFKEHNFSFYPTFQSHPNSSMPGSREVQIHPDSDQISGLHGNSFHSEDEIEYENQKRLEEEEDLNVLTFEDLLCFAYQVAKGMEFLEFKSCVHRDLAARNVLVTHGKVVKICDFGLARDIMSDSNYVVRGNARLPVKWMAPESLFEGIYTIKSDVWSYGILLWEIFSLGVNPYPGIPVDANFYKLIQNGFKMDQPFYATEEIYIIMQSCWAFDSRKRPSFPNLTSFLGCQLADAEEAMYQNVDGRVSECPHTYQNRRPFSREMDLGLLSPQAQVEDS
# Description: Inhibition of FLT3 (unknown origin)
# [3] = target: Platelet-derived growth factor receptor alpha (Homo sapiens, UniProt P16234)
# Description: Inhibition of PDGFR-alpha (unknown origin)
# [4] = target: Voltage-gated inwardly rectifying potassium channel KCNH2 (Homo sapiens, UniProt Q12809); experiment: Inhibition of hERG; format: toxicity
# [5] = target: Vascular endothelial growth factor receptor 2 (Homo sapiens, UniProt P35968); experiment: Inhibition of KDR (unknown origin)
# [6] = tested on: Huh-7; experiment: Anti-proliferative activity against human Huh-7 cells
# [7] = tested on: HCT-116; experiment: cells; conditions: Homo sapiens
# Description: Anti-proliferative activity against human HCT-116 cells
# [8] = tested on: Hep 3B2; experiment: Anti-proliferative activity against human Hep3B cells
# [9] = tested on: HT-29; experiment: Anti-proliferative activity against human HT-29 cells
# [10] = tested on: HepG2; experiment: Anti-proliferative activity against human HepG2 cells
# [11] = tested on: SNU-16; experiment: Anti-proliferative activity against human SNU-16 cells; format: functional, cell-based
# [12] = tested on: Hep 3B2; experiment: Antitumor activity against human Hep3B cells xenografted in BALB/c mouse at 60 mg/kg, po qd treated for 10 days followed by discontinuation of administration and re-continuation on day 18 measured after 7 days relative to control; conditions: read-out: TGI
# [13] = Toxicity in BALB/c mouse xenografted with human Hep3B cells assessed as body weight loss at 60 mg/kg, po qd measured for 25 days; format: organism-based; conditions: in vivo, 600 h, time 25 day
# [14] = Anti-proliferative activity against human KATO III cells
# Chain of Platelet-derived growth factor receptor beta (P09619 whole entry): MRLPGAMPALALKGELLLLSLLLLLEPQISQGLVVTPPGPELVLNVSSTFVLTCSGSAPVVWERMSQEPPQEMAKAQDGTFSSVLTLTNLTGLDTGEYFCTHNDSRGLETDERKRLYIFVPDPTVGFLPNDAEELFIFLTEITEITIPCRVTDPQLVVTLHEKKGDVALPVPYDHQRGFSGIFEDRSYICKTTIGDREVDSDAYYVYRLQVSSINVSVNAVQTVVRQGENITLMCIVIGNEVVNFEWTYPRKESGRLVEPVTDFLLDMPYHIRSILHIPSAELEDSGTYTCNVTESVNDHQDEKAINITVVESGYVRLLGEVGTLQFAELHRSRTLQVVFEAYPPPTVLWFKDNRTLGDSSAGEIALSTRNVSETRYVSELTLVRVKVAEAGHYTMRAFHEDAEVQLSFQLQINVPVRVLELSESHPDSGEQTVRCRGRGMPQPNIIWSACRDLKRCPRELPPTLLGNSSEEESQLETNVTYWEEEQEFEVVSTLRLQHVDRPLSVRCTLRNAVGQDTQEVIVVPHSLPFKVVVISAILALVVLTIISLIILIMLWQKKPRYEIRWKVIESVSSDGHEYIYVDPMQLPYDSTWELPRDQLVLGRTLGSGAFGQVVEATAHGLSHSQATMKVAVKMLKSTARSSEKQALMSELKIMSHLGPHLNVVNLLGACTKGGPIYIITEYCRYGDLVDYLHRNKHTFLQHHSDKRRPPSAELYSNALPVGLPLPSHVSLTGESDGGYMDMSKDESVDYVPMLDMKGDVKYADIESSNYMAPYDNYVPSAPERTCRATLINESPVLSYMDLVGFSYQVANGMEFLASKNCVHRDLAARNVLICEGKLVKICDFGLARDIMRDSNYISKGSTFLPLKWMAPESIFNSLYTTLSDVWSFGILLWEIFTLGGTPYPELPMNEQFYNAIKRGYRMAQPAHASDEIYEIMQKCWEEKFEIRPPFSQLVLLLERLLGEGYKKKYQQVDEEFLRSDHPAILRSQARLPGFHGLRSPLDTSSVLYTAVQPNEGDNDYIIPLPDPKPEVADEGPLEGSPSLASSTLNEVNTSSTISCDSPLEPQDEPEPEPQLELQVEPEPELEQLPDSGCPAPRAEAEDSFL
# Chain of Platelet-derived growth factor receptor alpha (P16234 whole entry): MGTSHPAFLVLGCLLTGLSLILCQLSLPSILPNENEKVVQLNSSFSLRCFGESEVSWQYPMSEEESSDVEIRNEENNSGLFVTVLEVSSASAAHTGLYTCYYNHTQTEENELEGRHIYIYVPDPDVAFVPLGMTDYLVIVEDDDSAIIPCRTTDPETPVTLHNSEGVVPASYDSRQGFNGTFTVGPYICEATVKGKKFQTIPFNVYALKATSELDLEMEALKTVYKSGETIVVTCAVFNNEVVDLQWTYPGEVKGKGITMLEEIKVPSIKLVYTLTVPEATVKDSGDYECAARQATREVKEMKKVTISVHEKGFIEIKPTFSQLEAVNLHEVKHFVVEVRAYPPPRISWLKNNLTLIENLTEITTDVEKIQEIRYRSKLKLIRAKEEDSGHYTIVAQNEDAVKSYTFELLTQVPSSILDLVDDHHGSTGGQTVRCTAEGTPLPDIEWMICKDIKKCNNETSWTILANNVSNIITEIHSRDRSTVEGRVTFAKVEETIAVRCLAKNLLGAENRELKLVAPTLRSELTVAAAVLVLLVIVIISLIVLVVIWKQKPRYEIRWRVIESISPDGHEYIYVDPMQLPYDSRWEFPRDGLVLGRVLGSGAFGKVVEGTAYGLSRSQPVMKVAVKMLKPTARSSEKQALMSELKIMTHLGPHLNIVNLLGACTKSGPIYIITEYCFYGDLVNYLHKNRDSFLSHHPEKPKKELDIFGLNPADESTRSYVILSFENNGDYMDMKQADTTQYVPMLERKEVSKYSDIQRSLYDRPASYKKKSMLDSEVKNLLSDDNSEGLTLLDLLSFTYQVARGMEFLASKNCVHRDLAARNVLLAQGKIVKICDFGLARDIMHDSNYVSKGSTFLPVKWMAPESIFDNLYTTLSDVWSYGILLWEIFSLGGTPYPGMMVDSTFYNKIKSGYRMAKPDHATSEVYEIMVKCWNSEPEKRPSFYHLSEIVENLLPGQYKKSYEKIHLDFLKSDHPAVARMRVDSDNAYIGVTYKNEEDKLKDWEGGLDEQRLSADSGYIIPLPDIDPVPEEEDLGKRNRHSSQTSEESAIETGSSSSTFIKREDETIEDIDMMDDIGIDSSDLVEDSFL
# Chain of Voltage-gated inwardly rectifying potassium channel KCNH2 (Q12809 whole entry): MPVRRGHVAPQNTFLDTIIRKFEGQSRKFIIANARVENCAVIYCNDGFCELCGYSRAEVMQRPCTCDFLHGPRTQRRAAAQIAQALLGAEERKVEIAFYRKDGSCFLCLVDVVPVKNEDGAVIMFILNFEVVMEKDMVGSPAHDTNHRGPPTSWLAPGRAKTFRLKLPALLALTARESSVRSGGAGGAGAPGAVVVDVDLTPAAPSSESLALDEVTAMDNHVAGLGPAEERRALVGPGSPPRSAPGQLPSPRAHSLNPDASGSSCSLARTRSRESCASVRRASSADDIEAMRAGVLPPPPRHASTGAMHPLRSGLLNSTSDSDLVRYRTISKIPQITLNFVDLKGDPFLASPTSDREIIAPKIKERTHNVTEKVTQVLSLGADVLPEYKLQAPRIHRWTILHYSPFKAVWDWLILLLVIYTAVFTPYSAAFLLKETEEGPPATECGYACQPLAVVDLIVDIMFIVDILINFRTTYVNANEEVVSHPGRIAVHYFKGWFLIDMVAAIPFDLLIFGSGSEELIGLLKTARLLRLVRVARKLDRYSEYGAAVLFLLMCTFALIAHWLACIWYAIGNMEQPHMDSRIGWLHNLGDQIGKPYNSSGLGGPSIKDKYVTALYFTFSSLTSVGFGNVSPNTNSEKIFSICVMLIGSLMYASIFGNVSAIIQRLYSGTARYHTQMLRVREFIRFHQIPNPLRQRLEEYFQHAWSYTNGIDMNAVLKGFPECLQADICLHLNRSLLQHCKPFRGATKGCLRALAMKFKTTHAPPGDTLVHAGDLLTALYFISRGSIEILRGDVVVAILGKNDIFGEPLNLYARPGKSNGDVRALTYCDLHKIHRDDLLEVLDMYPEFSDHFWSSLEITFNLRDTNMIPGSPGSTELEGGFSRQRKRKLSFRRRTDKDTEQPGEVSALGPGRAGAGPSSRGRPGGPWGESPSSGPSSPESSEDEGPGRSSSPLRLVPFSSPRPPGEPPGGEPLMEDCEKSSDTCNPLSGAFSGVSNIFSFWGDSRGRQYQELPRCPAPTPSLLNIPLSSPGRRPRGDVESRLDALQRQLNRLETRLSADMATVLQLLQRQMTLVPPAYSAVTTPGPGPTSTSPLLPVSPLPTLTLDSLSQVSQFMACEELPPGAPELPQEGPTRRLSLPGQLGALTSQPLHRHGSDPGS
# Chain of Vascular endothelial growth factor receptor 2 (P35968 whole entry): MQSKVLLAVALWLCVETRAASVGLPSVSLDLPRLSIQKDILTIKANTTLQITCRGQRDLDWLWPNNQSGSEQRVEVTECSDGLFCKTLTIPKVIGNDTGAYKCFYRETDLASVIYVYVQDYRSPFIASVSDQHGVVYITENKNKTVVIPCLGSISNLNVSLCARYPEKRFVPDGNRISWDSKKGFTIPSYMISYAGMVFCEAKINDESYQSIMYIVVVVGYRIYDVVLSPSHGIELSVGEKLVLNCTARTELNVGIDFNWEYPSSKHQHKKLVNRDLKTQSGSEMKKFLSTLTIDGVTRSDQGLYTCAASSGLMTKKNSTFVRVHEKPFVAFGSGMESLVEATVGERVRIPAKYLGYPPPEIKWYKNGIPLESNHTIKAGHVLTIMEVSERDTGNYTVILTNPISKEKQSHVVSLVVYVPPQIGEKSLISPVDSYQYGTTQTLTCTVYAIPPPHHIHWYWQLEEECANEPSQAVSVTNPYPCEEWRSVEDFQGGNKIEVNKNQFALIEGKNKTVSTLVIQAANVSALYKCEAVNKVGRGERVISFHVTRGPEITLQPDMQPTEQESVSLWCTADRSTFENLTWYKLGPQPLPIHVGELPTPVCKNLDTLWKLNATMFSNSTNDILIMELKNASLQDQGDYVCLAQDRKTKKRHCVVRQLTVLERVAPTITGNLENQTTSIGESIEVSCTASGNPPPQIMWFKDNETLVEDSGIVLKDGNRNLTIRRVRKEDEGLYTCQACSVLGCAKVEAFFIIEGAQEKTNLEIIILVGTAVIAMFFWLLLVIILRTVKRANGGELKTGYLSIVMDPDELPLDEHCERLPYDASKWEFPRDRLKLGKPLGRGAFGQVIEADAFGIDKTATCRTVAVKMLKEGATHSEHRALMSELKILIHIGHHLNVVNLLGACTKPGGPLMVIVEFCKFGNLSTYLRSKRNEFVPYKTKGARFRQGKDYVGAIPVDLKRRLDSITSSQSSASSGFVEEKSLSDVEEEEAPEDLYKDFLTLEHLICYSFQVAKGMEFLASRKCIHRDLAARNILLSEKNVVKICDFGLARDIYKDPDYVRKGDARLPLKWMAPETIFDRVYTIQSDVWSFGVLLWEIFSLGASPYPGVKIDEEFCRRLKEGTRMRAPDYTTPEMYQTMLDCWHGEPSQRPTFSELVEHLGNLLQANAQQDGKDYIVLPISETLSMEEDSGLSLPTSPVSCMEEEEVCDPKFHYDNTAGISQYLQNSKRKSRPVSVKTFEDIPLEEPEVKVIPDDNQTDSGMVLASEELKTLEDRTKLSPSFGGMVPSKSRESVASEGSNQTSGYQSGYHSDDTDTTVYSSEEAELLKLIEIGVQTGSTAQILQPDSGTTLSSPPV
smiles,measurement,setting,value
CC(C)(C)c1cc(NC(=O)Cc2ccc(-n3cnc4cc(-c5cccnc5)ccc43)cc2)on1,IC50,[1],1.3 nM
same,IC50,[2],0.73 nM
same,IC50,[3],0.28 nM
CC(C)(C)c1cc(NC(=O)Cc2ccc(-n3cnc4cc(C5CCNCC5)ccc43)cc2)on1,IC50,[1],12 nM
same,IC50,[2],22 nM
same,IC50,[3],11 nM
CC(C)(C)c1cc(NC(=O)Cc2ccc(-n3cnc4cc(-c5cn[nH]c5)ccc43)cc2)on1,IC50,[1],0.89 nM
same,IC50,[4],26500 nM
same,IC50,[2],0.33 nM
same,IC50,[3],0.18 nM
CC(C)(C)OC(=O)Cn1cc(-c2ccc3c(c2)ncn3-c2ccc(CC(=O)Nc3cc(C(C)(C)C)no3)cc2)cn1,IC50,[5],6.5 nM
Cn1cc(-c2ccc3c(c2)ncn3-c2ccc(CC(=O)Nc3cc(C(C)(C)C)no3)cc2)cn1,IC50,[1],1.15 nM
same,IC50,[4],17900 nM
same,IC50,[2],0.59 nM
same,IC50,[3],0.22 nM
COc1cc2nccc(Oc3ccc(NC(=O)C4(C(=O)Nc5ccc(F)cc5)CC4)cc3)c2cc1OC [CABOZANTINIB],IC50,[6],3660 nM
same,IC50,[7],7260 nM
same,IC50,[8],6500 nM
same,IC50,[9],5840 nM
same,IC50,[10],3660 nM
CNC(=O)c1cc(Oc2ccc(NC(=O)Nc3ccc(Cl)c(C(F)(F)F)c3)cc2)ccn1 [SORAFENIB],IC50,[7],4430 nM
same,IC50,[11],954 nM
same,inhibition in vivo at 60 mg/kg,[12],34%
same,IC50,[8],3330 nM
same,IC50,[9],5350 nM
same,Activity,[13],~ 16.32%
same,IC50,[14],569 nM
